# Where two headings read alike, the source gives them in different places.
# Legend:
# [1] = test system: velvetleaf; assay: Test A pre-/postemergence herbicide test; assay type: in vivo, Abutilon theophrasti; conditions: for Velvetleaf plant response rating: Preemergence, visual rating on 0 to 100 scale (0 no effect, 100 complete control)
# How it was run: (§1)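 Greenhouse pot test with pre- and postemergence application of surfactant-containing solvent formulations. Postemergence plants were 2–10 cm, one- to two-leaf stage. Response scored visually after ~10 days, 0 (no effect) to 100 (complete control).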
# [2] = test system: morningglory; assay: Test A pre-/postemergence herbicide test; assay type: in vivo, Ipomoea spp.; conditions: for Morningglory plant response rating: Preemergence, visual rating on 0 to 100 scale (0 no effect, 100 complete control)
# How it was run: as §1
# [3] = test system: crabgrass, large; assay: Test A pre-/postemergence herbicide test; assay type: in vivo, Digitaria sanguinalis; conditions: for Crabgrass, Large plant response rating: Preemergence, visual rating on 0 to 100 scale (0 no effect, 100 complete control)
# How it was run: as §1
# [4] = test system: ryegrass, Italian; assay: Test A pre-/postemergence herbicide test; assay type: in vivo, Lolium multiflorum
# How it was run: as §1
# [5] = test system: ragweed; assay: Test A pre-/postemergence herbicide test; assay type: in vivo, Ambrosia elatior
# How it was run: as §1
# [6] = test system: galium; assay: Test A postemergence herbicide test; assay type: in vivo, Galium aparine
# How it was run: (§2)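 Potted in loam soil/sand blend; postemergence application at 1–2 leaf stage (2–10 cm). Greenhouse ~10 d. Visual injury vs untreated, 0–100 scale; 100 = complete control.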
# [7] = test system: blackgrass; assay: Test A postemergence herbicide test; assay type: in vivo, Alopecurus myosuroides
# How it was run: as §2
# [8] = test system: kochia; assay: Test A pre-/postemergence herbicide test; assay type: in vivo, Kochia scoparia
# How it was run: as §1
# [9] = Postemergence, 500 g ai/ha, 0 to 100 scale (0 no effect, 100 complete control)
# [10] = preemergence, 500 g ai/ha, 0 to 100 scale
# [11] = Postemergence, 125 g ai/ha, 0 to 100 scale, 0 no effect, 100 complete control
# [12] = Postemergence, 1000 g ai/ha, 0 to 100 scale (0 no effect, 100 complete control)
# [13] = preemergence, 1000 g ai/ha, 0 to 100 scale
# [14] = Preemergence, 125 g ai/ha, visual rating on 0 to 100 scale (0 no effect, 100 complete control)
# [15] = 125 g ai/ha, 0 to 100 scale, 0 no effect, 100 complete control
# [16] = 500 g ai/ha, 0 to 100 scale (0 no effect, 100 complete control)
# [17] = 125 g ai/ha, visual rating, 0 to 100 scale, 0 no effect, 100 complete control, approximately 10 days, preemergence
# [18] = Postemergence, 125 g ai/ha, 0 to 100 scale, 0 is no effect, 100 is complete control
# [19] = preemergence, 500 g ai/ha, 0 to 100 scale, 0 is no effect and 100 is complete control
# [20] = 125 g ai/ha, 0 to 100 scale, 0 is no effect, 100 is complete control
Compound,"Plant response rating, Velvetleaf [1, 9]",Velvetleaf plant response rating ([1]; 125 g ai/ha),"Plant response rating, Velvetleaf [1, 10]","Plant response rating, Morningglory [2, 9]",Morningglory plant response rating ([2]; 125 g ai/ha),"Plant response rating, Morningglory [2, 10]","Plant response rating, Crabgrass, Large [3, 11]","Plant response rating, Crabgrass, Large [3, 9]","Crabgrass, Large plant response rating ([3]; 125 g ai/ha)","Plant response rating, Crabgrass, Large [3, 10]","Plant response rating, Velvetleaf [1, 11]","Plant response rating, Morningglory [2, 11]",also measured
O=C1NCC(c2ccc(F)c(F)c2)C1C(=O)Nc1ccccc1C(F)(F)F (racemic) [Compound 6],10,0,0,0,0,0,60,80,80,90,–,–,–
Cc1c(F)cccc1NC(=O)C1C(=O)NCC1c1ccc(F)c(F)c1 (racemic) [Compound 106],–,–,–,–,–,–,–,–,–,–,–,–,"Plant response rating, Velvetleaf [1, 12]: 40; Plant response rating, Velvetleaf [1, 13]: 0; Plant response rating, Morningglory [2, 12]: 20; Plant response rating, Morningglory [2, 13]: 0; Plant response rating, Crabgrass, Large [3, 12]: 90; Plant response rating, Crabgrass, Large [3, 13]: 90"
Cc1ccccc1NC(=O)C1C(=O)NCC1c1cccc(C(F)(F)F)c1 (racemic) [Compound 109],–,–,–,–,–,–,–,–,–,–,–,–,"Plant response rating, Ryegrass, Italian [4, 11]: 20; Plant response rating, Ryegrass, Italian [4, 9]: 30; Ryegrass, Italian plant response rating [4, 14]: 0; Plant response rating, Ryegrass, Italian [4, 10]: 50; Plant response rating, Ragweed [5, 11]: 0; Plant response rating, Ragweed [5, 9]: 0; Ragweed plant response rating [5, 14]: 0; Plant response rating, Ragweed [5, 10]: 0; Plant response rating, Galium [6, 15]: 30; Plant response rating, Galium [6, 16]: 60; Plant response rating, Blackgrass [7, 15]: 50; Plant response rating, Blackgrass [7, 16]: 80; Plant response rating, Kochia [8, 11]: 0; Plant response rating, Kochia [8, 9]: 0; Kochia plant response rating [8, 14]: 0; Plant response rating, Kochia [8, 10]: 0"
O=C1NCC(c2ccc(C(F)(F)F)cc2)C1C(=O)Nc1cccc(F)c1F (racemic) [Compound 202],–,–,–,–,–,–,–,–,–,–,–,–,"Plant response rating, Ryegrass, Italian [4, 17]: 60; Plant response rating, Ryegrass, Italian [4, 18]: 30; Ryegrass, Italian plant response rating (0 to 100 scale, 0 is no effect, 100 is complete control) ([4]; Postemergence, 500 g ai/ha): 40; Plant response rating, Ryegrass, Italian [4, 19]: 60; Plant response rating, Ragweed [5, 17]: 50; Plant response rating, Ragweed [5, 18]: 30; Ragweed plant response rating (0 to 100 scale, 0 is no effect, 100 is complete control) ([5]; Postemergence, 500 g ai/ha): 50; Plant response rating, Ragweed [5, 19]: 90; Plant response rating, Galium [6, 20]: 60; Galium plant response rating (0 to 100 scale, 0 is no effect, 100 is complete control) ([6]; 500 g ai/ha): 60; Plant response rating, Blackgrass [7, 20]: 50; Blackgrass plant response rating (0 to 100 scale, 0 is no effect, 100 is complete control) ([7]; 500 g ai/ha): 50; Plant response rating, Kochia [8, 17]: 70; Plant response rating, Kochia [8, 18]: 80; Kochia plant response rating (0 to 100 scale, 0 is no effect, 100 is complete control) ([8]; Postemergence, 500 g ai/ha): 90; Plant response rating, Kochia [8, 19]: 80"
O=C1NCC(c2cc(F)c(F)c(F)c2)C1C(=O)Nc1cccc(F)c1F (stereo not drawn) [Compound 48],20,0,0,20,0,0,80,80,90,90,0,0,–
O=C1NCC(c2cc(F)c(F)cc2F)C1C(=O)Nc1cccc(F)c1F (stereo not drawn) [Compound 50],0,0,0,0,0,0,80,80,90,90,0,0,–
O=C1NCC(c2ccc(F)c(Cl)c2)C1C(=O)Nc1ccccc1F (stereo not drawn) [Compound 60],0,0,0,0,0,0,80,90,90,90,0,0,–
O=C1NCC(c2cccc(OC(F)(F)F)c2)C1C(=O)Nc1ccccc1F (stereo not drawn) [Compound 69],30,0,0,0,0,0,70,90,90,90,20,0,–
"O=C1NCC(c2ccc(C(F)(F)F)cc2)C1C(=O)Nc1ccccc1F (stereo not drawn) [Compound 79, N-(2-fluorophenyl)-2-oxo-4-[4-(trifluoromethyl)phenyl]-3-pyrrolidinecarboxamide]",–,0,–,–,0,–,–,–,90,–,–,–,"pest or weed control at 125 g/ha ([1]; Abutilon theophrasti, post-emergence, 240 h, Postemergence, 125 g ai/ha, 0 to 100 scale, 0 no effect, 100 complete control, read-out: Plant response rating, Velvetleaf): 10%; pest or weed control at 500 g/ha ([1]; Abutilon theophrasti, post-emergence, 240 h, Postemergence, 500 g ai/ha, 0 to 100 scale (0 no effect, 100 complete control), read-out: Plant response rating, Velvetleaf): 60%; pest or weed control at 500 g/ha ([1]; Abutilon theophrasti, pre-emergence, 240 h, preemergence, 500 g ai/ha, 0 to 100 scale, read-out: Plant response rating, Velvetleaf): 30%; pest or weed control at 125 g/ha ([2]; Ipomoea, post-emergence, 240 h, Postemergence, 125 g ai/ha, 0 to 100 scale, 0 no effect, 100 complete control, read-out: Plant response rating, Morningglory): 0%; pest or weed control at 500 g/ha ([2]; Ipomoea, post-emergence, 240 h, Postemergence, 500 g ai/ha, 0 to 100 scale (0 no effect, 100 complete control), read-out: Plant response rating, Morningglory): 10%; pest or weed control at 500 g/ha ([2]; Ipomoea, pre-emergence, 240 h, preemergence, 500 g ai/ha, 0 to 100 scale, read-out: Plant response rating, Morningglory): 0%; pest or weed control at 125 g/ha ([3]; Digitaria sanguinalis, post-emergence, 240 h, Postemergence, 125 g ai/ha, 0 to 100 scale, 0 no effect, 100 complete control, read-out: Plant response rating, Crabgrass, Large): 80%; pest or weed control at 500 g/ha ([3]; Digitaria sanguinalis, post-emergence, 240 h, Postemergence, 500 g ai/ha, 0 to 100 scale (0 no effect, 100 complete control), read-out: Plant response rating, Crabgrass, Large): 90%; pest or weed control at 500 g/ha ([3]; Digitaria sanguinalis, pre-emergence, 240 h, preemergence, 500 g ai/ha, 0 to 100 scale, read-out: Plant response rating, Crabgrass, Large): 90%"
